Results published in US9045445B2, “Glycine transporter-1 inhibitors, methods of making them, and uses thereof” (Albany Molecular Research, Inc., priority 2010, dated 2015).
Where a name gives a salt, the structure may show the parent alone.

What was measured:
[1] = target: T1, glycine transporter-1 (GlyT-1) (Homo sapiens, UniProt P48067); assay: [14C]glycine uptake assay in JAR cells endogenously expressing GlyT-1 (scintillation proximity); type: cell-based; conditions: JAR cells, [14C]glycine 5 μM, 3 hour incubation; read-out: GlyT-1 IC50
T1 construct: JAR cells (ATCC#HTB-144), which endogenously express GlyT-1; host or cells: JAR human choriocarcinoma cells
T1 sequence (P48067 1-706): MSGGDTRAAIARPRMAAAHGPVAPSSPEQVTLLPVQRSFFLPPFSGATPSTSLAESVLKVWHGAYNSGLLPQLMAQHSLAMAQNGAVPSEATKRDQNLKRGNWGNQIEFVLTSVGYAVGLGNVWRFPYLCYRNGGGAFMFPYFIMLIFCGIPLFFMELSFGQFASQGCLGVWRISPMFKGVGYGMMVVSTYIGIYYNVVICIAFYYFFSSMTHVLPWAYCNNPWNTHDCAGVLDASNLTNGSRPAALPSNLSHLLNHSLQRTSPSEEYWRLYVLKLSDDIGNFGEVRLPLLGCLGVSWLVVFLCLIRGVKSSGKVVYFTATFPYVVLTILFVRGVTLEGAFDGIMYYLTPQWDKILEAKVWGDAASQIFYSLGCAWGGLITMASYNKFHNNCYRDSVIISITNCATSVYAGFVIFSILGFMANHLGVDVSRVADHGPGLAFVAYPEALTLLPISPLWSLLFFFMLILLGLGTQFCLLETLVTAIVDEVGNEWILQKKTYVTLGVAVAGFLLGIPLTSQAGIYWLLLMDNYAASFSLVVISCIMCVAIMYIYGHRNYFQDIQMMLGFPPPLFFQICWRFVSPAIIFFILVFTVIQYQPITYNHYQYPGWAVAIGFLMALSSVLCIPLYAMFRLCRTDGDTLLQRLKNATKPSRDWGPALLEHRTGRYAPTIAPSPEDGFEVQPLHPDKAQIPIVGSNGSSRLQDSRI
Outline: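 Human choriocarcinoma JAR cells (endogenous GlyT-1) attached overnight, then pre-incubated 10 min at room temperature with compound in pH 7.4 Hepes uptake buffer containing 5 mM alanine and 0.75% DMSO. Uptake of 5 μM [14C]glycine over 3 h at 37 °C read by scintillation proximity; IC50 from four-parameter fit of nine-point curves.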

[2] = target: T2, glycine transporter-2 (GlyT-2) (Homo sapiens, UniProt Q9Y345); assay: [14C]glycine uptake assay in HEK-GlyT-2 transfected cells; type: cell-based; conditions: HEK-GlyT-2 cells
T2 construct: expressed in transfected cells
T2 sequence (Q9Y345 1-797): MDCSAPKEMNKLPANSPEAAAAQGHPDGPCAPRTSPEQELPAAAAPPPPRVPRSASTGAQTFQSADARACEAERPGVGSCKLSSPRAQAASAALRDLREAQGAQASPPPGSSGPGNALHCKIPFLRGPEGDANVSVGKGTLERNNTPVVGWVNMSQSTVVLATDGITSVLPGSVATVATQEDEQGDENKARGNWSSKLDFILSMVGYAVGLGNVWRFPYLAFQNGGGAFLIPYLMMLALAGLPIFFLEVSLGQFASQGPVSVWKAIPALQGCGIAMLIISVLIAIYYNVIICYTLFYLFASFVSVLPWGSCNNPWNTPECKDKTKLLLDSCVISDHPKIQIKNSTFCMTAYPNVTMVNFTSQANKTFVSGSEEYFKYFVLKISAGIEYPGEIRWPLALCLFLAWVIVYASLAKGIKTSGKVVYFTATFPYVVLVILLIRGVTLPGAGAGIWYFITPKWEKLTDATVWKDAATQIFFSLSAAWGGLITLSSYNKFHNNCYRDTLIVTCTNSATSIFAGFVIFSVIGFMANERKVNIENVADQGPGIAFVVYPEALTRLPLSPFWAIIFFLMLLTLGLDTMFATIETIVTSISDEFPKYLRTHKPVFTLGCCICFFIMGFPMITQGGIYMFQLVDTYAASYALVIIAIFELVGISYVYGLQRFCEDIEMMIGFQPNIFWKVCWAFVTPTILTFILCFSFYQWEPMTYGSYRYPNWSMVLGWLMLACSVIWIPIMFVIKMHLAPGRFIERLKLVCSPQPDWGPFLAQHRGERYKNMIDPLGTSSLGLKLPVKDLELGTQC

## CCCS(=O)(=O)N1CCN(C2(CNC(=O)c3cccc(C(F)(F)F)c3Cl)CCCCCC2)CC1 [compound 59, 2-Chloro-N-((1-(4-(propylsulfonyl)piperazin-1-yl)cycloheptyl)methyl)-3-(trifluoromethyl) benzamide Hydrochloride]
[1]
  IC50: 0.128 µM
[2]
  IC50: > 75 µM

## CC1CN(C2(CNC(=O)c3c(F)cccc3F)CCCCC2)CCN1S(=O)(=O)CC1CC1 (centres unmarked) [compound 117, N-((1-(4-(Cyclopropylmethyl-sulfonyl)-3-methylpiperazin-1-yl)cyclohexyl)methyl)-2,6-difluorobenzamide Hydrochloride]
[1]
  IC50: 1.07 µM
[2]
  IC50: > 75 µM

## CC(C)CS(=O)(=O)N1CCN(C2(CNC(=O)c3c(N)cccc3Cl)CCCCC2)CC1 [compound 92, 2-Amino-6-chloro-N-((1-(4-(isobutylsulfonyl)piperazin-1-yl)cyclohexyl)methyl) benzamide Hydrochloride]
[1]
  IC50: 0.952 µM
[2]
  IC50: 54.8 µM

## CCCS(=O)(=O)N1CCN(C2(CNC(=O)c3c(C)cccc3C)CCCCC2)CC1 [compound 47, 2,6-Dimethyl-N-((1-(4-(propylsulfonyl)piperazin-1-yl)cyclohexyl)methyl) benzamide Hydrochloride]
[1]
  IC50: 0.012 µM
[2]
  IC50: > 75 µM

## CCCS(=O)(=O)N1CCN(C2(CNC(=O)c3c(F)cc(F)cc3F)CCCCC2)CC1 [compound 48, 2,4,6-Trifluoro-N-((1-(4-(propylsulfonyl)piperazin-1-yl)cyclohexyl)methyl) benzamide Hydrochloride]
[1]
  IC50: 0.016 µM
[2]
  IC50: > 75 µM

## CCCS(=O)(=O)N1CCN(C2(CNC(=O)c3ccc(C(F)(F)F)cc3Cl)CCC(F)(F)CC2)CC1C (centres unmarked) [compound 256, 2-Chloro-N-((4,4-difluoro-1-(3-methyl-4-(propylsulfonyl)piperazin-1-yl)cyclohexyl)methyl)-4-(trifluoromethyl) benzamide Hydrochloride]
[1]
  IC50: 0.133 µM
[2]
  IC50: > 75 µM

## CCCS(=O)(=O)N1CCN(C2(CNC(=O)c3ccc(Cl)cc3Cl)CCCCC2)CC1 [compound 2, 2,4-Dichloro-N-((1-(4-(propylsulfonyl)piperazin-1-yl)cyclohexyl)methyl)benzamide Hydrochloride]
[1]
  IC50: 0.022 µM
[2]
  IC50: 22.7 µM

## Cn1cnc(S(=O)(=O)N2CCN(C3(CNC(=O)c4c(F)cccc4F)CCCOC3)CC2)c1 (centres unmarked) [compound 127, 2,6-Difluoro-N-((3-(4-(1-methyl-1H-imidazol-4-ylsulfonyl)piperazin-1-yl)tetrahydro-2H-pyran-3-yl)methyl)benzamide Hydrochloride]
[1]
  IC50: 0.369 µM
[2]
  IC50: > 75 µM

## Cc1cc(F)ccc1C(=O)NCC1(N2CCN(S(=O)(=O)c3cn(C)cn3)CC2)CCCCC1 [compound 102, 4-Fluoro-2-methyl-N-((1-(4-(1-methyl-1H-imidazol-4-ylsulfonyl)piperazin-1-yl)cyclohexyl)methyl) benzamide Hydrochloride]
[1]
  IC50: 0.01 µM
[2]
  IC50: > 75 µM

## CCCS(=O)(=O)N1CCN(C2(CNC(=O)c3c(C)cc(F)cc3OC)CCC(F)(F)CC2)CC1 [compound 137, N-((4,4-Difluoro-1-(4-(propylsulfonyl)piperazin-1-yl)cyclohexyl)methyl)-4-fluoro-2-methoxy-6-methylbenzamide Hydrochloride]
[1]
  IC50: 0.028 µM
[2]
  IC50: > 75 µM

## CCCS(=O)(=O)N1CCN(C2(CNC(=O)c3cc(Cl)ccc3Cl)CCCCC2)CC1 [compound 32, 2,5-Dichloro-N-((1-(4-(propylsulfonyl)piperazin-1-yl)cyclohexyl)methyl) benzamide Hydrochloride]
[1]
  IC50: 0.071 µM
[2]
  IC50: > 75 µM

## CC(NC(=O)c1ccc(F)cc1Cl)C1(N2CCN(S(=O)(=O)c3cn(C)nn3)CC2)CCC(F)(F)CC1 (centres unmarked) [compound 220, 2-Chloro-N-(1-(4,4-difluoro-1-(4-(1-methyl-1H-1,2,3-triazol-4-ylsulfonyl)piperazin-1-yl)cyclohexyl)ethyl)-4-fluorobenzamide Hydrochloride]
[1]
  IC50: 0.083 µM
[2]
  IC50: > 75 µM

## Cn1cc(S(=O)(=O)N2CCN(C3(CNC(=O)c4ccc(Cl)cc4Cl)CCOCC3)CC2)nn1 [compound 129, 2,4-Dichloro-N-((4-(4-(1-methyl-1H-1,2,3-triazol-4-ylsulfonyl)piperazin-1-yl)tetrahydro-2H-pyran-4-yl)methyl)benzamide Hydrochloride]
[1]
  IC50: 0.011 µM
[2]
  IC50: > 75 µM

## CCCS(=O)(=O)N1CCN(C2(CNC(=O)c3c(N)cccc3Cl)CCN(C)CC2)CC1 [compound 116, 2-Amino-6-chloro-N-((1-methyl-4-(4-(propylsulfonyl)piperazin-1-yl)piperidin-4-yl)methyl)benzamide Hydrochloride]
[1]
  IC50: 0.5 µM
[2]
  IC50: > 75 µM

## CCCS(=O)(=O)N1CCN(C2(CNC(=O)c3ccc(Br)cc3)CCCCC2)CC1 [compound 11, 4-Bromo-N-((1-(4-(propylsulfonyl)piperazin-1-yl)cyclohexyl)methyl) benzamide Hydrochloride]
[1]
  IC50: 0.222 µM
[2]
  IC50: > 75 µM

## CCCS(=O)(=O)N1CCN(C2(CNC(=O)c3ccc(OC(F)(F)F)cc3)CCCCC2)CC1 [compound 6, N-((1-(4-(Propylsulfonyl)piperazin-1-yl)cyclohexyl)methyl)-4-(trifluoromethoxy) benzamide Hydrochloride]
[1]
  IC50: 0.118 µM
[2]
  IC50: 28.6 µM

## CCCS(=O)(=O)N1CCN(C2(CNC(=O)c3c(C)cccc3F)CCCCC2)CC1 [compound 49, 2-Fluoro-6-methyl-N-((1-(4-(propylsulfonyl)piperazin-1-yl)cyclohexyl)methyl) benzamide Hydrochloride]
[1]
  IC50: 0.016 µM
[2]
  IC50: > 75 µM

## CCCS(=O)(=O)N1CCN(C2(CNC(=O)c3ccccc3OC(F)(F)F)CCC(F)(F)CC2)CC1 [compound 141, N-((4,4-Difluoro-1-(4-(propylsulfonyl)piperazin-1-yl)cyclohexyl)methyl)-2-(trifluoromethoxy) benzamide Hydrochloride]
[1]
  IC50: 0.048 µM
[2]
  IC50: > 75 µM

## O=C(NCC1(N2CCN(S(=O)(=O)c3cn(C(F)F)nn3)CC2)CCC(F)(F)CC1)c1ccc(C(F)(F)F)cc1Cl [compound 236, 2-Chloro-N-((1-(4-(1-(difluoromethyl)-1H-1,2,3-triazol-4-ylsulfonyl)piperazin-1-yl)-4,4-difluorocyclohexyl)methyl)-4-(trifluoromethyl) benzamide Hydrochloride]
[1]
  IC50: 0.041 µM
[2]
  IC50: > 75 µM

## CCCS(=O)(=O)N1CCN(C2(CNC(=O)c3c(Cl)cccc3Cl)CCCCCC2)CC1 [compound 64, 2,6-Dichloro-N-((1-(4-(propylsulfonyl)piperazin-1-yl)cycloheptyl)methyl) benzamide Hydrochloride]
[1]
  IC50: 0.011 µM
[2]
  IC50: > 75 µM

## Cn1cnc(S(=O)(=O)N2CCN(C3(CNC(=O)c4ccc(F)cc4Cl)CCC(F)(F)CC3)CC2)c1 [compound 166, 2-Chloro-N-((4,4-difluoro-1-(4-(1-methyl-1H-imidazol-4-ylsulfonyl)piperazin-1-yl)cyclohexyl)methyl)-4-fluorobenzamide Hydrochloride]
[1]
  IC50: 0.005 µM
[2]
  IC50: > 75 µM

## CCS(=O)(=O)N1CCN(C2(CNC(=O)c3c(C)cc(F)cc3OC)CCCCCC2)CC1 [compound 87, N-((1-(4-(Ethylsulfonyl)piperazin-1-yl)cycloheptyl)methyl)-4-fluoro-2-methoxy-6-methylbenzamide Hydrochloride]
[1]
  IC50: 0.155 µM
[2]
  IC50: > 75 µM
